Laboratory results: paper PMC4925160, “Mode of action of DNA-competitive small molecule inhibitors of tyrosyl DNA phosphodiesterase 2” (Biochemical Journal, 2016)

Molecular target: T1, tyrosyl-DNA phosphodiesterase 2 (hTDP2-CAT) (Homo sapiens, UniProt O95551, C273S)
T1 construct: gene TDP2; catalytic domain, residues 113–362
T1 sequence (O95551 113-362 C273S): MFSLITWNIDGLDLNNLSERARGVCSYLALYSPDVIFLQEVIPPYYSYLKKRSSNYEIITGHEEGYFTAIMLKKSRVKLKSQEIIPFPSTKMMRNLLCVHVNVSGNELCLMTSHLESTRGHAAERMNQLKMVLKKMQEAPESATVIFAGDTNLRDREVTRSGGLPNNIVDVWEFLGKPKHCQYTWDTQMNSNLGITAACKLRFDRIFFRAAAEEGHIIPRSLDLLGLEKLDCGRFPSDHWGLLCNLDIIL
Experiment: fluorescence-based […]'-phosphotyrosyl oligonucleotide enzyme assay
Type: biochemical

IC50: 489 nM
Compound: N#Cc1ccc2cc3c(=O)[nH]c(=O)nc-3n(-c3cccc(CO)c3)c2c1 [compound 149, 149]
